Test systems include OVCAR-4 ovarian; ACHN renal; SW-620 colon; K-562 leukemia; HOP-92 NSCLC; MDA-MB-231 breast; OVCAR-5 ovarian; OVCAR-8 ovarian; RXF 393 renal; MCF7 breast; T-47D breast; SF-295 CNS; HCC-2998 colon; UACC-62 melanoma; SNB-19 CNS; U251 CNS; 786-0 renal; IGROV1 ovarian; SK-MEL-28 melanoma.
Holding throughout (assay): inhibition of tumour cell growth, NCI panel, 48 h

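All cell lines were grown in 96-well plates and treated with compound for 48 hours. At the TGI there is no net growth.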

Take `CC(C)=CCC[C@@H](C)C1=C(O)C(O)C(C)=C2N=C(c3ccccc3)C(=O)OC21` (some centres not stated): the TGI was > 25 µM in the assay with OVCAR-4 ovarian; > 13.7 µM with ACHN renal; > 25 µM in the assay on SW-620 colon; > 25 µM with K-562 leukemia; > 7.8 µM with HOP-92 NSCLC; 17.3 µM in the assay with MDA-MB-231 breast. Also, the TGI in the assay with OVCAR-5 ovarian was > 25 µM; in the assay on OVCAR-8 ovarian, > 11 µM; in the assay with RXF 393 renal it was > 17.1 µM; in the assay on MCF7 breast, > 25 µM; in the assay with T-47D breast, 8.66 µM; in the assay with SF-295 CNS, > 10.9 µM. Further, the TGI is 21.2 µM in the assay with HCC-2998 colon; 5.95 µM in the assay with UACC-62 melanoma; > 25 µM in the assay on SNB-19 CNS; > 25 µM in the assay on U251 CNS; > 20.5 µM in the assay on 786-0 renal; > 25 µM in the assay with IGROV1 ovarian. Besides, in the assay on SK-MEL-28 melanoma, the TGI was > 25 µM.
In the case of `CCCCCCCCCCCCCCCCCCNc1ccn(C2OC(COP(=O)(O)OC3CC(n4cc(F)c(=O)[nH]c4=O)OC3COP(=O)(O)OCC3OC(n4ccc(N)nc4=O)C(O)C3O)C(O)C2O)c(=O)n1` (configuration not stated), the TGI was > 100 µM in the assay on OVCAR-4 ovarian; > 100 µM with ACHN renal; > 57.3 µM in the assay with SW-620 colon; > 100 µM in the assay with K-562 leukemia; > 100 µM in the assay on HOP-92 NSCLC; > 61.7 µM with MDA-MB-231 breast. Besides, the TGI is > 100 µM in the assay on OVCAR-5 ovarian; > 51.8 µM in the assay with OVCAR-8 ovarian; > 75.5 µM in the assay on RXF 393 renal; > 100 µM in the assay with MCF7 breast; > 100 µM in the assay with T-47D breast; > 51.9 µM with SF-295 CNS. Also, the TGI in the assay on HCC-2998 colon was 27.3 µM; with UACC-62 melanoma it was > 44.4 µM; in the assay with SNB-19 CNS it was > 57.9 µM; with U251 CNS, > 50.4 µM; in the assay with 786-0 renal it was > 58.1 µM; in the assay on IGROV1 ovarian, 54.9 µM. The TGI with SK-MEL-28 melanoma is > 100 µM.
For `Nc1nc(Cl)c(N)c(NCC2(CO)CCC2)n1`, the TGI in the assay with OVCAR-4 ovarian, with ACHN renal, in the assay with SW-620 colon, in the assay with K-562 leukemia, in the assay with HOP-92 NSCLC and with MDA-MB-231 breast was > 100 µM each time. Besides, the TGI in the assay on OVCAR-5 ovarian, in the assay on OVCAR-8 ovarian, in the assay on RXF 393 renal, in the assay on MCF7 breast, in the assay on T-47D breast and in the assay on SF-295 CNS was > 100 µM throughout. Further, the TGI in the assay with HCC-2998 colon, in the assay on UACC-62 melanoma, with SNB-19 CNS, in the assay with U251 CNS, in the assay on 786-0 renal and in the assay on IGROV1 ovarian was > 100 µM in each case. Besides, in the assay with SK-MEL-28 melanoma, the TGI is > 100 µM.
Take `CCC(C)C(C(=O)N/N=C1/SCC(=O)N1c1ccccc1)C(=O)N/N=C1/SCC(=O)N1c1ccccc1` (configuration not stated): the TGI was 33.3 µM with OVCAR-4 ovarian; > 100 µM with ACHN renal; > 100 µM in the assay with SW-620 colon; > 100 µM with K-562 leukemia; 45.2 µM in the assay with HOP-92 NSCLC; 88.7 µM with MDA-MB-231 breast. In addition, the TGI in the assay with OVCAR-5 ovarian was > 100 µM; in the assay with OVCAR-8 ovarian it was > 100 µM; in the assay on RXF 393 renal, 42.9 µM; in the assay with MCF7 breast, > 100 µM; in the assay with T-47D breast it was > 100 µM; in the assay with SF-295 CNS it was > 100 µM. The TGI with HCC-2998 colon was > 100 µM; in the assay on UACC-62 melanoma, 36.9 µM; with SNB-19 CNS, > 100 µM; with U251 CNS it was > 100 µM; in the assay on 786-0 renal, > 100 µM; in the assay with IGROV1 ovarian it was > 100 µM. In the assay with SK-MEL-28 melanoma, this molecule had a TGI of 33.9 µM.
For the molecule `CC(=O)O[C@@H]1CC[C@@]2(C)C(CC[C@H]3[C@@H]4CC[C@H]([C@H](C)CCc5nc6ccc(C)cc6[nH]5)[C@@]4(C)CC[C@@H]32)C1` (some centres not stated), the TGI is > 100 µM with OVCAR-4 ovarian; > 100 µM in the assay on ACHN renal; > 100 µM in the assay with SW-620 colon; > 100 µM in the assay with K-562 leukemia; > 100 µM in the assay on HOP-92 NSCLC; 55.3 µM with MDA-MB-231 breast. Moreover, the TGI was > 100 µM in the assay on OVCAR-5 ovarian; > 100 µM in the assay on OVCAR-8 ovarian; > 100 µM in the assay with RXF 393 renal; > 100 µM with MCF7 breast; 4.63 µM with T-47D breast; > 100 µM in the assay with SF-295 CNS. The TGI is > 100 µM in the assay on HCC-2998 colon; > 100 µM with UACC-62 melanoma; > 100 µM with SNB-19 CNS; > 100 µM in the assay on U251 CNS; > 100 µM with 786-0 renal; 19.1 µM in the assay on IGROV1 ovarian. Moreover, the TGI in the assay with SK-MEL-28 melanoma is > 100 µM.
Regarding `CC(=O)O[C@H]1CC[C@H]2[C@@H]3CCC4C(C)=NNC(=O)C4[C@H]3CC[C@]12C` (some centres not stated), the TGI with OVCAR-4 ovarian is > 100 µM; in the assay on ACHN renal it was > 100 µM; in the assay with SW-620 colon, > 100 µM; in the assay on K-562 leukemia, > 100 µM; in the assay with HOP-92 NSCLC it was > 100 µM; in the assay with MDA-MB-231 breast it was > 82.8 µM. Further, the TGI with OVCAR-5 ovarian, in the assay on OVCAR-8 ovarian, in the assay on RXF 393 renal, in the assay with MCF7 breast, with T-47D breast and in the assay on SF-295 CNS was > 100 µM each time. For the same molecule, the TGI with HCC-2998 colon is > 100 µM; with UACC-62 melanoma, > 100 µM; in the assay with SNB-19 CNS it was > 82.9 µM; in the assay with U251 CNS, > 100 µM; in the assay on 786-0 renal, > 100 µM; in the assay on IGROV1 ovarian it was > 79.4 µM. For the same molecule, the TGI in the assay on SK-MEL-28 melanoma was > 100 µM.
For `COc1ccc([N+](=O)[O-])c2c(NCCCN(C)C)c3ccccc3nc12`, the TGI in the assay with OVCAR-4 ovarian amounted to 0.206 µM; with ACHN renal, 0.389 µM; with K-562 leukemia it was 3.76 µM; in the assay with HOP-92 NSCLC it was 0.4 µM; in the assay on MDA-MB-231 breast, 2.31 µM; in the assay on OVCAR-5 ovarian, 0.984 µM. The TGI in the assay on OVCAR-8 ovarian was 4.9 µM; in the assay on RXF 393 renal, 0.253 µM; in the assay with MCF7 breast, 0.203 µM; in the assay on T-47D breast it was 3.95 µM; in the assay with SF-295 CNS, 0.693 µM; with HCC-2998 colon, 0.0727 µM. Moreover, the TGI in the assay on UACC-62 melanoma was determined as 0.285 µM; in the assay with SNB-19 CNS it was 3.51 µM; in the assay on U251 CNS, 2.05 µM; in the assay on 786-0 renal, 0.504 µM; in the assay with IGROV1 ovarian, 0.234 µM; in the assay on SK-MEL-28 melanoma, 13.4 µM.

For the origin of these results see PubChem BioAssay (NCI).
